Changes are numbered by the printed parent chain.
Legend:
[1] = target: T1, LIL3 (LIL3.1) (Arabidopsis thaliana, UniProt Q9SYX1); assay: co-purification (Ni-NTA, sucrose gradient), CN-PAGE, SEC, HPLC pigment analysis; type: binding; conditions: dimer; pH 6.5, 0.03% DDM, 15 °C
T1 construct: PCC 6803 GT-P, DDM-solubilized, dimer
T1 sequence (Q9SYX1 40-262): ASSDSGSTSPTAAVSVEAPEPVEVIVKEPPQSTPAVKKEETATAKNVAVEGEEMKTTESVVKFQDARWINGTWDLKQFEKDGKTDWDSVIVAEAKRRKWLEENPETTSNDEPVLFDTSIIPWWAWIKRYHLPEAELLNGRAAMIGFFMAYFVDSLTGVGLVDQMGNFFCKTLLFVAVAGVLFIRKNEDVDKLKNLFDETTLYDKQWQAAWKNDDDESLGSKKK

[2] = target: T2, LIL3 (LIL3.1) (Arabidopsis thaliana, UniProt Q9SYX1, N177A); assay: co-purification; pigment colour of the purified protein; type: binding; conditions: DDM-solubilized
T2 construct: PCC 6803 GT-P, DDM-solubilized, dimer
T2 sequence (Q9SYX1 40-262 N177A): T1 sequence (Q9SYX1 40-262) with N138A

[3] = target: T3, LIL3 (LIL3.1) (Arabidopsis thaliana, UniProt Q9SYX1, N177D); assay: co-purification, 2D CN/SDS-PAGE; type: binding; conditions: DDM-solubilized
T3 construct: PCC 6803 GT-P, DDM-solubilized, dimer
T3 sequence (Q9SYX1 40-262 N177D): T1 sequence (Q9SYX1 40-262) with N138D

[4] = target: T4, ELIP2 (Arabidopsis thaliana, UniProt Q94K66); assay: co-purification (Ni-NTA, sucrose gradient), SEC, HPLC pigment analysis; type: binding; conditions: pH 6.5, 0.03% DDM, 15 °C
T4 construct: PCC 6803 GT-P, DDM-solubilized, monomeric
T4 sequence (Q94K66 44-193): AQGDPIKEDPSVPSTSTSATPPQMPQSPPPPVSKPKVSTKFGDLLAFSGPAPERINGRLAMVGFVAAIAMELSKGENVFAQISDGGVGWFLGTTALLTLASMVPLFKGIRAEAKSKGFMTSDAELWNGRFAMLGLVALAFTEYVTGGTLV

[5] = target: the molecule itself; assay: native gel or EMSA; 2D clear native/SDS-PAGE (4-14% CN gel, DDM) of LIL3 purified from the wild type background, pigmented; Coomassie stain; mass judged against Synechocystis membrane complexes with a detergent belt assumed

For `CC1=C(/C=C/C(C)=C/C=C/C(C)=C/C=C/C=C(C)/C=C/C=C(C)/C=C/C2=C(C)C[C@@H](O)CC2(C)C)C(C)(C)C[C@H](O)C1` [Zea, zeaxanthin], the “co-purification (Ni-NTA, sucrose gradient), CN-PAGE, SEC, HPLC pigment analysis” value [1] was “Pigments extracted from the LIL3 SEC fraction contained Zea and Chl”, the no binding [2] was “(LIL3-N177A and LIL3-N177D) were purified from Synechocystis as completely colourless proteins” and the no binding [3] was “showing that the N177D mutation abolishes pigment binding”. The “co-purification (Ni-NTA, sucrose gradient), SEC, HPLC pigment analysis” value [4] was “Pigments co-isolated with ELIP2 consisted of Zea, Chl, and β-Car”.

In the case of `CC1=C(/C=C/C(C)=C/C=C/C(C)=C/C=C/C=C(C)/C=C/C=C(C)/C=C/C2=C(C)CCCC2(C)C)C(C)(C)CCC1` [β-Car], the “co-purification (Ni-NTA, sucrose gradient), SEC, HPLC pigment analysis” value [4] is reported as “Pigments co-isolated with ELIP2 consisted of Zea, Chl, and β-Car”.

B1: LIGHT-HARVESTING-LIKE 3 protein LIL3.1 from Arabidopsis, 8xHis-tagged, without the predicted signal sequence (natural protein, UniProt Q9SYX1 40-262, looked up)
chain: T1 sequence (Q9SYX1 40-262)
notes: printed mass 25.1 KDa; Cloned into the pPD-NFLAG plasmid by NdeI and BglII with 8xHis added by the forward primer; From the wild type background it carries Chl and zeaxanthin; from ZEP^+ and xant^- it is (almost) colourless; also called LIL3[2]; LIL3 (ZEP^+); source: Synechocystis sp; PCC 6803 (psbAII promoter; wild type, ZEP^+ or xant^- background), purified from DDM-solubilized membranes …
For B1, the “stoichiometry N” value [5] was 2.

Source: paper PMC8617258, “Plant LHC-like proteins show robust folding and static non-photochemical quenching” (Nature Communications, 2021)
